Assay [1] deals with Wnt pathway activity (SW480 colon carcinoma cells stably expressing the Sp5-Luc reporter). As to the kind of experiment: Wnt pathway activity screening assay (Sp5-Luc reporter gene assay). Conditions: Homo sapiens, SW480, Table 4; SW480 cells stably expressing Sp5-Luc reporter, 10-point dose-response from 10 μM, 36 to 48 hours. On the technique in general: Reporter assays use an easily measured gene product as a stand-in for the process of interest.

For assay [2], the target named is CLK3 kinase (Homo sapiens, UniProt P49761). As to the kind of experiment: CLK3 kinase activity assay (Z-lyte FRET).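 Also: kinase activity read as coumarin/fluorescein emission ratio by FRET, unphosphorylated peptide as 0% and phosphorylated peptide as 100% control, values from non-linear regression of dose-response curves.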 The class given is biochemical. The note with it: Z-lyte Ser/Thr 18 peptide, 156 μM ATP, 1 h at room temperature.
Sequence of CLK3 kinase (P49761 whole entry): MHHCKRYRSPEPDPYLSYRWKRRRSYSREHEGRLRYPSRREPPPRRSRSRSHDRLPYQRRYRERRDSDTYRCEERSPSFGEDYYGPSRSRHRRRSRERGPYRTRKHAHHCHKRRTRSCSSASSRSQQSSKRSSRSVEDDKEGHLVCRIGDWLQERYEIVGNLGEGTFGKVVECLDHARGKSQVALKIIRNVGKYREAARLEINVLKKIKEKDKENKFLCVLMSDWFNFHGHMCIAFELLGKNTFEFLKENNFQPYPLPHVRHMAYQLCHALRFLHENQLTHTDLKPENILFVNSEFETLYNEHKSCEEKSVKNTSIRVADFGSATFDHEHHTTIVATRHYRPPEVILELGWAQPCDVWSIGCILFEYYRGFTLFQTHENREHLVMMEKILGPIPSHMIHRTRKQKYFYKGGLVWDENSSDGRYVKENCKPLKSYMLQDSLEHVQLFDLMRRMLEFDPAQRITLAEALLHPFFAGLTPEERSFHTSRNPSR
For assay [3], the system named is primary human mesenchymal stem cells (hMSCs). As to the kind of experiment: Chondrogenesis screening using primary human mesenchymal stem cells. Conditions: Homo sapiens, Mesenchymal stem cells, hMSC chondrogenesis; for EC50: concentration required to induce 50% levels of chondrogenesis with TGF-β3 as positive control, read-out: Conc (nM) of 50% TGF-β3 activity; for Emax: maximum activity relative to TGF-β3 (10 ng/mL) positive control, read-out: Max. Activity as % TGF-β3 activity. The class given is cell-based. An outline of the steps:
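Derived values are EC50 for 50% chondrogenesis, maximal activity and the dose giving it. These come from nodule area in passage 3–6 primary hMSCs, expressed as fold change over the mean of 3 same-plate DMSO wells, 2–3 replicates per concentration. TGF-β3 served as positive control.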

The target of assay [4] is CLK2 kinase (Homo sapiens, UniProt P49760). Kind of assay: CLK2 kinase activity assay (Z-lyte FRET).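 Also: FRET read-out as coumarin to fluorescein emission ratio, unphosphorylated peptide as 0% and phosphorylated peptide as 100% controls, duplicate reactions, non-linear regression fit of dose-response curves.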 The class given is biochemical. The note with it: Z-lyte Ser/Thr 6 peptide, 60 μM ATP, 1 h at room temperature.
Sequence of CLK2 kinase (P49760 whole entry): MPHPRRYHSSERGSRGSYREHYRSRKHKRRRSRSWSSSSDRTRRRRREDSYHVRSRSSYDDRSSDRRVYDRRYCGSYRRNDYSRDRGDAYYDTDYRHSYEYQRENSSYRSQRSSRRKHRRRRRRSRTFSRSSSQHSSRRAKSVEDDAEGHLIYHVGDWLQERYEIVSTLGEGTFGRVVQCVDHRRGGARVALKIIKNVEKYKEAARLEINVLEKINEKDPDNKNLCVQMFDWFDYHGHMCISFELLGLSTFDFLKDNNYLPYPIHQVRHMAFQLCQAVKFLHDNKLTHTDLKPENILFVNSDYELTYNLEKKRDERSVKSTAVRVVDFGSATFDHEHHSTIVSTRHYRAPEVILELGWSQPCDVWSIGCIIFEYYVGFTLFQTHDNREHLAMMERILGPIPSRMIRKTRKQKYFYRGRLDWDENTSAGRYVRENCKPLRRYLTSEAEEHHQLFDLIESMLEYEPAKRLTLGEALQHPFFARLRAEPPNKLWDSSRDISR

32 molecules from patent US20230000842A1, “METHODS OF TREATING CARTILAGE DISORDERS THROUGH INHIBITION OF CLK AND DYRK” (SAMUMED, LLC, priority 2019, published 2023) can be followed below.

Each structure is given as a SMILES string.

Consider `Cc1ccc(NC(=O)c2n[nH]c3ccc(-c4cncc(CN5CCCCC5)c4)cc23)cn1` [compound 78], for which the EC50 was 0.057 µM in assay [1], 0.044 µM in assay [2], 30 nM in assay [3] and 0.001 µM in assay [4]. Moreover, in assay [3], the Emax worked out at 102%.
In the same order, the values of `Cc1ccncc1-c1cnc2[nH]nc(-c3nc4c(-c5cc(F)cc(CNS(C)(=O)=O)c5)nccc4[nH]3)c2c1` [compound 289] are 0.124 µM, 0.039 µM, 10 nM, 0.004 µM and 92.8%.
For `CN(C)Cc1cncc(-c2ccc3[nH]nc(-c4nc5c(-c6cccc(F)c6)cncc5[nH]4)c3n2)c1` [compound 139], the EC50 in assay [1] was determined as 1.05 µM; in assay [2], 0.079 µM; in assay [4], 0.003 µM. The Emax in assay [3] was 16.7%.
On the same counts, the results for `Cc1cn(-c2cncc3[nH]c(-c4n[nH]c5ccc(-c6cncc(NC(=O)C7CCC7)c6)nc45)nc23)cn1` [compound 227] are more than 10 µM, 1.3 µM, 0.01 µM and 47.2%.
On the same counts, the results for `CCC(=O)Nc1cncc(-c2ccc3[nH]nc(-c4cc5c(-c6cccc(F)c6)cncc5[nH]4)c3c2)c1` [compound 303] are 0.045 µM, 0.085 µM, 0.015 µM and 33.5%.
For the molecule `c1cncc(-c2cc3c(-c4cc5cnccc5[nH]4)n[nH]c3cn2)c1` [compound 412], the EC50 is 0.133 µM in assay [1], 0.088 µM in assay [2], 30 nM in assay [3] and 0.002 µM in assay [4]. Moreover, the Emax in assay [3] was determined as 62%.
Regarding `CC(C)CC(=O)Nc1cncc(-c2ccc3[nH]nc(-c4cc5c(-c6ccccc6F)nccc5[nH]4)c3n2)c1` [compound 326], the figures for the EC50 in assay [1], in assay [2] and in assay [4] were 0.605 µM, 0.144 µM and 0.01 µM, respectively. In assay [3], the Emax was found to be 36.3%.
On the same counts, the results for `O=C(Nc1cncc(-c2ccc3[nH]nc(-c4cc5c(-c6cccnc6)cncc5[nH]4)c3c2)c1)C1CCCC1` [compound 356] are 1.35 µM, 0.078 µM, 0.006 µM and 45.5%.
In the same order, the values of `CC(C)(C)C(=O)Nc1cncc(-c2cc3c(-c4nc5c(-c6ccc(F)s6)nccc5[nH]4)n[nH]c3cn2)c1` [compound 263] are 0.0353 µM, 0.358 µM, 0.018 µM and 40.9%.
In the same order, the values of `CC(C)CC(=O)Nc1cncc(-c2ccc3[nH]nc(-c4cc5c(N6CCN(C)CC6)ccnc5[nH]4)c3n2)c1` [compound 477] are 3.45 µM, 0.204 µM, 0.003 µM and 49.5%.
As for `CC(C)Nc1cncc(-c2ccc3[nH]nc(-c4cc5c(-c6cccnc6)ccnc5[nH]4)c3n2)c1` [compound 364], the EC50 in assay [1] worked out at 0.255 µM; in assay [2], 0.139 µM; in assay [4] it was 0.01 µM. Moreover, the Emax in assay [3] came out at 47.2%.
On the same counts, the results for `CC(C)(C)CC(=O)Nc1cncc(-c2cnc3[nH]nc(-c4cc5cnccc5[nH]4)c3c2)c1` [compound 424] are 0.605 µM, 0.047 µM, 0.002 µM and 7.07%.
With `CCCCC(=O)Nc1cncc(-c2ccc3[nH]nc(-c4nc5c(-c6cc(F)cc(NCCN(C)C)c6)cncc5[nH]4)c3n2)c1` [compound 279], the EC50 in assay [1] was more than 10 µM; in assay [2], 0.093 µM; in assay [3], 10 nM; in assay [4], 0.002 µM. The Emax in assay [3] worked out at 64.7%.
For `Nc1cncc(-c2cnc3[nH]nc(-c4cc5c(-c6ccccc6F)ccnc5[nH]4)c3c2)c1` [compound 322], the results for the EC50 in assay [1], in assay [2] and in assay [4] were 0.745 µM, 0.066 µM and 0.006 µM, respectively. For the same molecule, in assay [3], the Emax was 27.6%.
With `CCCCC(=O)Nc1cncc(-c2ccc3[nH]nc(-c4cc5c(N6CCCCC6)nccc5[nH]4)c3n2)c1` [compound 459], the EC50 came out at 4.05 µM in assay [1], 0.269 µM in assay [2], 30 nM in assay [3] and 0.013 µM in assay [4]. Moreover, the Emax in assay [3] was found to be 54.5%.
As for `CN1CCN(c2cncc3[nH]c(-c4n[nH]c5ccc(-c6cncc(N)c6)cc45)cc23)CC1` [compound 470], the EC50 in assay [1] was 8.25 µM; in assay [2], 0.04 µM; in assay [4] it was 0.002 µM. For the same molecule, the Emax in assay [3] was 50.9%.
On to `Nc1cncc(-c2ccc3[nH]nc(-c4nc5c(-c6ccccc6F)nccc5[nH]4)c3n2)c1` [compound 169], for which the EC50 in assay [1] is more than 10 µM; in assay [2] it was 0.05 µM; in assay [3], 10 nM; in assay [4], 0.001 µM. Also, the Emax in assay [3] is 108%.
For `c1cc2cc(-c3n[nH]c4ccc(-c5cncc(OCCN6CCCC6)c5)cc34)[nH]c2cn1` [compound 452], the EC50 in assay [1] turned out to be 1.85 µM; in assay [2], 0.068 µM; in assay [4], 0.002 µM. Further, the Emax in assay [3] stood at 44.6%.
In the same order, the values of `Cc1ccncc1-c1ccc2[nH]nc(-c3cc4ccncc4[nH]3)c2c1` [compound 415] are 0.191 µM, 0.031 µM, 0.001 µM and 161%.
On the same counts, the results for `CC(C)CC(=O)Nc1cncc(-c2ccc3[nH]nc(-c4cc5c(-c6cc(F)cc(CNS(C)(=O)=O)c6)nccc5[nH]4)c3n2)c1` [compound 525] are 0.479 µM, 0.038 µM, 0.008 µM and 33.1%.
On the same counts, the results for `CN1CCN(c2ccnc3[nH]c(-c4n[nH]c5ccc(-c6cncc(N)c6)cc45)cc23)CC1` [compound 471] are 1.17 µM, 0.089 µM, 0.003 µM and 50.2%.
Turning to `Cn1cc(-c2cc3c(-c4nc5c(-c6cccc(F)c6)nccc5[nH]4)n[nH]c3cn2)cn1` [compound 156], the EC50 was found to be 0.01 µM in assay [1], 1.8 µM in assay [2], 100 nM in assay [3] and 0.01 µM in assay [4]. Moreover, the Emax in assay [3] stood at 110%.
For the molecule `CN(C)Cc1cncc(-c2ccc3[nH]nc(-c4cc5cnccc5[nH]4)c3n2)c1` [compound 442], the EC50 in assay [1] turned out to be 1.14 µM; in assay [2], 0.101 µM; in assay [3], 30 nM; in assay [4] it was 0.003 µM. Also, the Emax in assay [3] came to 119%.
As for `Nc1cncc(-c2ccc3[nH]nc(-c4cc5c(-c6ccccn6)ccnc5[nH]4)c3c2)c1` [compound 407], the EC50 in assay [1] was 0.0224 µM; in assay [2], 0.019 µM; in assay [4] it was 0.003 µM. In assay [3], the Emax is 46.1%.
In the case of `CC(C)CC(=O)Nc1cncc(-c2cc3c(-c4cc5cccnc5[nH]4)n[nH]c3cn2)c1` [compound 423], the results for the EC50 in assay [1], in assay [2] and in assay [4] were more than 10 µM, 6.21 µM and 0.021 µM, respectively. The Emax in assay [3] was found to be 40.4%.
On to `CC(C)(C)C(=O)Nc1cncc(-c2cnc3[nH]nc(-c4cc5c(-c6ccncc6)cncc5[nH]4)c3c2)c1` [compound 391], for which the EC50 was more than 10 µM in assay [1], 0.062 µM in assay [2] and 0.004 µM in assay [4]. In addition, the Emax in assay [3] came to 33.6%.
As for `CN(C)Cc1cncc(-c2ccc3[nH]nc(-c4cc5c(-c6ccccc6F)cncc5[nH]4)c3n2)c1` [compound 337], the EC50 in assay [1] worked out at 1.37 µM; in assay [2] it was 0.109 µM; in assay [3], 30 nM; in assay [4] it was 0.002 µM. Besides, the Emax in assay [3] was 50.6%.
In the case of `O=C(Nc1cncc(-c2cnc3[nH]nc(-c4cc5c(-c6cccnc6)cccc5[nH]4)c3c2)c1)C1CCC1` [compound 355], the EC50 in assay [1] came out at 0.202 µM; in assay [2], 0.151 µM; in assay [4], 0.008 µM. Besides, the Emax in assay [3] worked out at 41.3%.
For `COc1cncc(-c2ccc3[nH]nc(-c4cc5c(-c6ccoc6)nccc5[nH]4)c3c2)c1` [compound 504], the EC50 in assay [1] came out at 0.643 µM; in assay [2], 0.117 µM; in assay [4], 0.006 µM. Also, in assay [3], the Emax was found to be 35.5%.
On to `FC1(F)CCN(Cc2cncc(-c3ccc4[nH]nc(-c5cc6c(-c7ccccn7)cccc6[nH]5)c4n3)c2)C1` [compound 409], for which the EC50 in assay [1] is 0.432 µM; in assay [2] it was 0.142 µM; in assay [3], 10 nM; in assay [4] it was 0.005 µM. For the same molecule, the Emax in assay [3] stood at 81.9%.
Take `c1ccc(CNCc2cncc(-c3ccc4[nH]nc(-c5cc6c(-c7cccs7)cncc6[nH]5)c4c3)c2)cc1` [compound 508]: the EC50 in assay [1] was 0.578 µM; in assay [2] it was 0.068 µM; in assay [4], 0.007 µM. Also, the Emax in assay [3] came out at 57.4%.
As for `CCNCc1cncc(-c2ccc3[nH]nc(-c4cc5c(-c6cccnc6)ccnc5[nH]4)c3c2)c1` [compound 365], the values for the EC50 in assay [1], in assay [2] and in assay [4] were more than 10 µM, 0.443 µM and 0.013 µM, respectively. In assay [3], the Emax was found to be 28.7%.
